Data as given in patent publication EP4818324A1, “BIOLOGICAL METHOD FOR PREPARING 1,2-PROPANEDIOL” (Tianjin University, priority 2023, dated 2025).

What was measured:
[1] = tested on: Lactiplantibacillus plantarum 1,5-anhydroglucitol-6-phosphate isomerase LpYbiW (Uniprot A0A807DR53), SEQ ID NO: 2; experiment: Michaelis-Menten kinetics of LpYbiW, coupled with LpFsaA and EcGldA, NADH consumption at A340nm; assay type: biochemical; details: substrate 1,5-anhydroglucitol-6-phosphate at varying concentrations; 100 nM activated LpYbiW, 20 mM Tris/HCl pH 7.5, 100 mM KCl, 0.4 mM NADH, glove box
Procedure: The Michaelis-Menten kinetic parameters of LpYbiW were determined by coupling with LpFsaA and EcGldA. The reaction rate of LpYbiW was monitored by measuring NADH consumption at A340nm. The absorbance change of the reaction system at 340 nm was measured every 5 seconds using the cuvette mode of an ultra-micro UV-visible spectrophotometer (Nanophotometer) in a glove box (1 cm light path). These reaction systems consisted of 100 nM activated LpYbiW, 20 mM Tris/HCl, (pH 7.5), 100 mM KCl, 1,5-anhydroglucitol-6-phosphate with varying concentrations, 5 µM LpFsaA, 5 µM EcGldA, and 0.4 mM NADH.

[2] = target: T1, Escherichia coli strain K12 1,5-anhydromannitol-6-phosphate isomerase EcPflD (Uniprot P32674), SEQ ID NO: 98 (Escherichia coli, UniProt P32674); experiment: Michaelis-Menten kinetics of EcPflD, coupled with EcFsaB and EcGldA, decrease in A340nm; assay type: biochemical; details: substrate 1,5-AM-6P at various concentrations; 40 nM activated EcPflD, 20 mM Tris/HCl pH 7.5, 100 mM KCl, 0.4 mM NADH, glove box
T1 sequence (P32674 1-765): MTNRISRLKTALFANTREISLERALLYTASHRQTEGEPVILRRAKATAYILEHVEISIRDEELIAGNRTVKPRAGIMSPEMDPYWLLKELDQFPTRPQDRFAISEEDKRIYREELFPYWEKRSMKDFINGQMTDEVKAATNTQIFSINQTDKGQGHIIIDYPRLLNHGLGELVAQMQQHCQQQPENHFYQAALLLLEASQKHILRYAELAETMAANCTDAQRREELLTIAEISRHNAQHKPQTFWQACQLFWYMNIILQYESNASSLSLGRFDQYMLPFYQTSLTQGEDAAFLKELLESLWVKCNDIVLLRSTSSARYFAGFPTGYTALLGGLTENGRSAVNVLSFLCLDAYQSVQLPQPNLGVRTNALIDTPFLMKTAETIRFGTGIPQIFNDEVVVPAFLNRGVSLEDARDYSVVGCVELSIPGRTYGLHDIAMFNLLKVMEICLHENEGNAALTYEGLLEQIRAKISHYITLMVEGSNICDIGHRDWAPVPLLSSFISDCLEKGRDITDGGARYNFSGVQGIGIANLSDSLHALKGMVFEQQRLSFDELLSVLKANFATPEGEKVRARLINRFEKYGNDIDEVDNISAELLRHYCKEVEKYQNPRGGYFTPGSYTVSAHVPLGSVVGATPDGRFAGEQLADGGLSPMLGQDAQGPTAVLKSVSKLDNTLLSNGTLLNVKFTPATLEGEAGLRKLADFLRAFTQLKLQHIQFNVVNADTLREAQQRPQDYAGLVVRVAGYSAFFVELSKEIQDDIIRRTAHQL
Procedure: The reaction system containing 20 mM Tris/HCl, (pH 7.5), 100 mM KCl, 40 nM activated EcPflD and 1,5-AM-6P with various substrate concentrations, 2 µM EcFsaB, 2 µM EcGldA, and 0.4 mM NADH was measured using a cuvette mode of an ultra-micro UV-Vis spectrophotometer (Hangzhou Miu Instruments Co., Ltd.) in a 1 cm Eppendorf cuvette inside a glove box. The decrease in A340nm was monitored at 5-second intervals.

| Structure (SMILES) | Km [1] [mM] | kcat [1] [s^-1/LpYbiW] | Km [2] [mM] | kcat [2] [s^-1/EcPflD] |
| --- | --- | --- | --- | --- |
| O=P(O)(O)OC[C@H]1OC[C@H](O)[C@@H](O)[C@@H]1O [1,5-AG-6P, 1,5-anhydroglucitol-6-phosphate] | 36.5 ± 6.66 | 43.38 ± 2.96 | – | – |
| O=P(O)(O)OC[C@H]1OC[C@@H](O)[C@@H](O)[C@@H]1O [1,5-AM-6P, 1,5-anhydromannitol-6-phosphate] | – | – | 1.33 ± 0.12 | 33.47 ± 0.79 |
